Data published in patent publication US11325899B2, “Benzofurane and benzothiophene derivatives as PGE2 receptor modulators” (IDORSIA PHARMACEUTICALS LTD, priority 2017, dated 2022).
pIC50: −log10 of the molar value.

Key:
PTGER2 (EP2) = molecular target: T1, PTGER2 (EP2) (Homo sapiens, UniProt P43116); test: hEP2 b-arrestin assay (PathHunter HEK 293 PTGER2 b-arrestin cells); format: cell-based; conditions: antagonistic activity, beta-arrestin assay; read-out: hEP2 b-arr IC50
T1 construct: host or cells: HEK 293 (PathHunter PTGER2 b-arrestin cell line)
Description: (§1) The antagonistic activities of the compounds of formula (I) on the EP2 and EP4 receptors are determined in accordance with the following experimental method.
(§2) The assay is using the PathHunter™ HEK 293 PTGER2 and PTGER4 b-arrestin cell lines from DiscoverX. The system is based on the Enzyme Fragment Complementation Technology. Two complementing fragments of the b-galactosidase enzyme are expressed within stably transfected cells. The larger portion of b-gal, termed EA for Enzyme Acceptor, is fused to the C-terminus of b-arrestin 2. The smaller fragment, termed ProLink™ tag, is fused to PTGER2 (EP2) or PTRGER4 (EP4) at the C-terminus. Upon activation, b-arrestin is recruited which forces the interaction of ProLink and EA, allowing complementation of the two fragments of b-gal and the formation of a functional enzyme which is capable of hydrolysing the substrate and generating a chemiluminescent signal.
(§3) The HEK 293 PTGER2 b-arrestin cells (DiscoverX 93-021-4C1) are detached from culture dishes with a cell dissociation buffer (Invitrogen, 13151-014), and collected in growing medium (GM: DMEM+Glutamax-I (Invitrogen 32430)/10% FCS, 1% Penicilin/streptomycin). 5000 cells per well of a 384 well plate (white with white bottom Greiner 781080) are seeded in 20 ul per well of GM. Plate is incubated at 37° C., 5% C02 for 24 hours.
(§4) Stock solutions of test compounds are made at a concentration of 10 mM in DMSO, and serially diluted in DMSO to concentrations required for inhibition dose response curves (tested concentration range 10 μM-2 nM or 1 μM-0.2 nM).
PGE2 (Cayman 14010, stock solution: 10 mM in DMSO) is used as agonist at 5 μM final concentration, corresponding to EC80.
Five microliters of diluted compounds are transferred into the assay plate. Plate is pre-incubated 15 minutes at 37° C. Then five microliters of PGE2 (final conc. 5 μM) are transferred into the assay plate. Plate is incubated 120 minutes at 37° C.
(§5) PathHunter Glo Detection Kit components are thawed and mix according to manufacturer's instructions: 1 part Galacton Star Substrate with 5 parts Emerald II™ Solution, and 19 parts of PathHunter Cell Assay Buffer, respectively. Twelve μl of reagent are transferred to the assay plate and incubate for 1 hour at room temperature in the dark. Luminescence counts are read on a BMG Fluostar Optima reader according to manufacturer's instructions.
(§6) For each compound concentration calculate of the percentage of activity compared to DMSO control value as average±STDEV. (each concentration is measured in duplicate)
(§7) IC50 values and curves are generated with XLfit software (IDBS) using Dose-Response One Site model 203. When compounds were measured multiple times, mean values are given.

PTGER4 (EP4) = molecular target: T2, PTGER4 (EP4) (Homo sapiens, UniProt P35408); test: hEP4 b-arrestin assay (PathHunter HEK 293 PTGER4 b-arrestin cells); format: cell-based; conditions: antagonistic activity, beta-arrestin assay; read-out: hEP4 b-arr IC50
T2 construct: host or cells: HEK 293 (PathHunter PTGER4 b-arrestin cell line)
Description: as §1, §2
as §3, with “PTGER4” for “PTGER2”, “93-030-4C1)” for “93-021-4C1)”
as §4
PGE2 (Cayman 14010, stock solution: 100 uM in DMSO) is used as agonist at 20 nM final concentration, corresponding to EC80.
Five microliters of diluted compounds are transferred into the assay plate. Plate is pre-incubated 15 minutes at 37° C. Then five microliters of PGE2 (final conc. 20 nM) are transferred into the assay plate. Plate is incubated 120 minutes at 37° C.
as §5, §6, §7

T2 sequence (P35408 whole entry): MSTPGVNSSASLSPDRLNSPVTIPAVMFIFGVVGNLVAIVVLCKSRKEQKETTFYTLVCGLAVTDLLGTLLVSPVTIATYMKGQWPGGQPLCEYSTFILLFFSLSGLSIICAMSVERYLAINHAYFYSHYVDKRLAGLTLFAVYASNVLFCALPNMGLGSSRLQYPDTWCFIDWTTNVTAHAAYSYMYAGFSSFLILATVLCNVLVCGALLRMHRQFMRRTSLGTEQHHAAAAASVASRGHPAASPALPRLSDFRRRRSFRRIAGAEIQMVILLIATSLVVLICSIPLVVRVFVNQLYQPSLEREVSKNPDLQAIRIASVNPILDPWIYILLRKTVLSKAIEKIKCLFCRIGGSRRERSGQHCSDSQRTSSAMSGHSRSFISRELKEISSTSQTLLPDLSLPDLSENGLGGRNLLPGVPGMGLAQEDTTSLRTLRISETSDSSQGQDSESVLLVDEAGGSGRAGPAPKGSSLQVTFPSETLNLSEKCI
T1 sequence (P43116 whole entry): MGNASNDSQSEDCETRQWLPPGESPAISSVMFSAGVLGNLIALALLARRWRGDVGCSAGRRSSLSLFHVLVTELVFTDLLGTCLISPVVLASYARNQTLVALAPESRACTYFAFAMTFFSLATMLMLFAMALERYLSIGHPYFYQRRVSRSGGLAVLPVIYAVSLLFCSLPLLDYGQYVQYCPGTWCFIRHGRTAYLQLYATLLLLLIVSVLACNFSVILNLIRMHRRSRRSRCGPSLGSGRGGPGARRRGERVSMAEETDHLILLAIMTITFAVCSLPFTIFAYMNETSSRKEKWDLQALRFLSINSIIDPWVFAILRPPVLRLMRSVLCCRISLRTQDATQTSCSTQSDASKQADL

Row | SMILES | pIC50 (PTGER2 (EP2)) | pIC50 (PTGER4 (EP4))
1 | CCCn1cc(-c2cc(NCCc3c(C)sc4c(C)cc(F)cc34)ncn2)cc1C(=O)O [Example 201, 4-{6-[2-(5-Fluoro-2,7-dimethyl-benzo[b]thiophen-3-yl)-ethylamino]-pyrimidin-4-yl}-1-propyl-1H-pyrrole-2-carboxylic acid] | 7.47 | 6.45
2 | CCOc1cc(-c2cc(NCCc3c(C)sc4c(C)cc(F)cc34)ncn2)ccc1C(N)=O [Example 213, 2-Ethoxy-4-{6-[2-(5-fluoro-2,7-dimethyl-benzo[b]thiophen-3-yl)-ethylamino]-pyrimidin-4-yl}-benzamide] | 8.00 | 6.39
3 | CCCc1cc(-c2cc(NCCc3c(C)sc4c(C)cc(F)cc34)ncn2)ccc1C(N)=O [Example 206, 4-{6-[2-(5-Fluoro-2,7-dimethyl-benzo[b]thiophen-3-yl)-ethylamino]-pyrimidin-4-yl}-2-propyl-benzamide] | 8.00 | 6.54
4 | Cc1cc(-c2cc(NCCc3c(C)sc4c(C)cc(F)cc34)ncn2)cc(Cl)c1CC(=O)O [Example 198, (2-Chloro-4-{6-[2-(5-fluoro-2,7-dimethyl-benzo[b]thiophen-3-yl)-ethylamino]-pyrimidin-4-yl}-6-methyl-phenyl)-acetic acid] | 7.11 | 6.76
5 | CSc1cc(-c2cc(NCCc3c(C#N)sc4ccccc34)ncn2)ccc1C(=O)O [Example 173, 4-{6-[2-(2-Cyano-benzo[b]thiophen-3-yl)-ethylamino]-pyrimidin-4-yl}-2-methylsulfanyl-benzoic acid] | 8.10 | 6.12
6 | CCOc1cc(-c2cc(NCCc3c(C)sc4c(C)cc(F)cc34)ncn2)[nH]c1C(=O)O [Example 199, 3-Ethoxy-5-{6-[2-(5-fluoro-2,7-dimethyl-benzo[b]thiophen-3-yl)-ethylamino]-pyrimidin-4-yl}-1 H-pyrrole-2-carboxylic acid] | 8.30 | 6.44
7 | Cc1sc2c(C)cc(F)cc2c1CCNc1cc(-c2ccc(NC=O)cc2)ncn1 [Example 188, N-(4-{6-[2-(5-Fluoro-2,7-dimethyl-benzo[b]thiophen-3-yl)-ethylamino]-pyrimidin-4-yl}-phenyl)-formamide] | 7.01 | 6.16
8 | CCOc1c(CC(=O)O)ccc(-c2cc(NCCc3c(C)sc4c(C)cc(F)cc34)ncn2)c1F [Example 216, (2-Ethoxy-3-fluoro-4-{6-[2-(5-fluoro-2,7-dimethyl-benzo[b]thiophen-3-yl)-ethylamino]-pyrimidin-4-yl}-phenyl)-acetic acid] | 7.39 | 6.63
9 | Cc1[nH]c(-c2cc(NCCc3c(C)sc4c(C)cc(F)cc34)ncn2)cc1C(=O)O [Example 205, 5-{6-[2-(5-Fluoro-2,7-dimethyl-benzo[b]thiophen-3-yl)-ethylamino]-pyrimidin-4-yl}-2-methyl-1 H-pyrrole-3-carboxylic acid] | 7.13 | 6.11
10 | Cc1sc2c(C)cc(F)cc2c1CCNc1cc(-c2cnn(C(C)(C)C(=O)O)c2)ncn1 [Example 214, 2-(4-{6-[2-(5-Fluoro-2,7-dimethyl-benzo[b]thiophen-3-yl)-ethylamino]-pyrimidin-4-yl}-pyrazol-1-yl)-2-methyl-propionic acid] | 6.63 | 6.41
11 | CCc1cc(-c2cc(NCCc3c(C)sc4c(C)cc(F)cc34)ncn2)ccc1C(=O)OC [Example 181, 2-Ethyl-4-{6-[2-(5-fluoro-2,7-dimethyl-benzo[b]thiophen-3-yl)-ethylamino]-pyrimidin-4-yl}-benzoic acid methyl ester] | 6.90 | 6.37
12 | CCn1cc(-c2cc(NCCc3c(C)sc4c(C)cc(F)cc34)ncn2)cc1C(=O)O [Example 200, 1-Ethyl-4-{6-[2-(5-fluoro-2,7-dimethyl-benzo[b]thiophen-3-yl)-ethylamino]-pyrimidin-4-yl}-1H-pyrrole-2-carboxylic acid] | 7.20 | 6.26

The remaining lines, values ahead:

Row | pIC50 (PTGER2 (EP2)) | pIC50 (PTGER4 (EP4)) | SMILES
13 | 7.85 | 6.34 | Cc1sc2c(C)cc(F)cc2c1CCNc1cc(-c2cc3cccc(C(=O)O)c3s2)ncn1 [Example 222, 2-{6-[2-(5-Fluoro-2,7-dimethyl-benzo[b]thiophen-3-yl)-ethylamino]-pyrimidin-4-yl}-benzo[b]thiophene-7-carboxylic acid]
14 | 7.02 | 6.84 | CCCc1cc(-c2cc(NCCc3c(C)sc4c(C)cc(F)cc34)ncn2)ccc1C1(C(=O)O)CC1 [Example 218, 1-(4-{6-[2-(5-Fluoro-2,7-dimethyl-benzo[b]thiophen-3-yl)-ethylamino]-pyrimidin-4-yl}-2-propyl-phenyl)-cyclopropanecarboxylic acid]
15 | 6.84 | 6.82 | CCOc1cc(-c2cc(NCCc3c(C)sc4c(C)cc(F)cc34)ncn2)ccc1C1(C(=O)O)CC1 [Example 215, 1-(2-Ethoxy-4-{6-[2-(5-fluoro-2,7-dimethyl-benzo[b]thiophen-3-yl)-ethylamino]-pyrimidin-4-yl}-phenyl)-cyclopropanecarboxylic acid]
16 | 6.90 | 6.07 | CCOc1cc(-c2cc(NCCc3c(C)sc4c(C)cc(F)cc34)ncn2)c(F)cc1CC(=O)O [Example 217, (2-Ethoxy-5-fluoro-4-{6-[2-(5-fluoro-2,7-dimethyl-benzo[b]thiophen-3-yl)-ethylamino]-pyrimidin-4-yl}-phenyl)-acetic acid]
17 | 7.10 | 6.37 | Cc1sc2c(C)cc(F)cc2c1CCNc1cc(-c2ccc(CC(=O)O)c(OC(F)(F)F)c2)ncn1 [Example 187, (4-{6-[2-(5-Fluoro-2,7-dimethyl-benzo[b]thiophen-3-yl)-ethylamino]-pyrimidin-4-yl}-2-trifluoromethoxy-phenyl)-acetic acid]
18 | 7.33 | 6.67 | Cc1sc2c(C)cc(F)cc2c1CCNc1cc(-c2ccc(-c3noc(=O)[nH]3)cc2)ncn1 [Example 177, 3-(4-{6-[2-(5-Fluoro-2,7-dimethyl-benzo[b]thiophen-3-yl)-ethylamino]-pyrimidin-4-yl}-phenyl)-[1,2,4]oxadiazol-5(4H)-one [tautomeric form: 3-(4-{6-[2-(5-Fluoro-2,7-dimethyl-benzo[b]thiophen-3-yl)-ethylamino]-pyrimidin-4-yl}-phenyl)-[1,2,4]oxadiazol-5-ol]]
19 | 7.74 | 6.18 | CCc1cc(-c2cc(NCCc3c(C)sc4c(C)cc(F)cc34)ncn2)ccc1C(=O)O [Example 193, 2-Ethyl-4-{6-[2-(5-fluoro-2,7-dimethyl-benzo[b]thiophen-3-yl)-ethylamino]-pyrimidin-4-yl}-benzoic acid]
20 | 6.97 | 5.99 | Cc1sc2c(C)cc(F)cc2c1CCNc1cc(-c2ccc(/C=C/C(=O)O)cc2)ncn1 [Example 204, (E)-3-(4-{6-[2-(5-Fluoro-2,7-dimethyl-benzo[b]thiophen-3-yl)-ethylamino]-pyrimidin-4-yl}-phenyl)-acrylic acid]
21 | 7.40 | 6.68 | Cc1sc2c(C)cc(F)cc2c1CCNc1cc(-c2ccc3[nH]ccc3c2)ncn1 [Example 183, [2-(5-Fluoro-2,7-dimethyl-benzo[b]thiophen-3-yl)-ethyl]-[6-(1H-indol-5-yl)-pyrimidin-4-yl]-amine]
22 | 7.72 | 6.33 | CCCc1cc(-c2cc(NCCc3c(C)sc4c(C)cc(F)cc34)ncn2)ccc1C(=O)NC [Example 210, 4-{6-[2-(5-Fluoro-2,7-dimethyl-benzo[b]thiophen-3-yl)-ethylamino]-pyrimidin-4-yl}-N-methyl-2-propyl-benzamide]
